Test results published in doi:10.1101/2023.05.15.540887, “Comparative analysis of drug-like EP300/CREBBP acetyltransferase inhibitors” (bioRxiv, 2023).

Columns and labels:
[1] = system: OVCAR-4; experiment: NCI-60 growth inhibition (sulforhodamine B); assay type: cell-based, human; conditions: OVCAR-4 (Ovarian Cancer), negative log of Molar conc., LCONC -8
[2] = system: COLO205; experiment: NCI-60 growth inhibition (sulforhodamine B); assay type: cell-based, human; conditions: COLO 205 (Colon Cancer), negative log of Molar conc., LCONC -8
[3] = Homo sapiens, read-out: GI50 NLOGVALUE (converted)

With `C[C@H](CN[C@@H](C(=O)Nc1ccc(-c2cnn(C)c2)cn1)c1ccccc1)c1ccc(C#N)cc1` [CPI-1612] the GI50 [1, 3] was 2.04 µM, the IC50 ([1]; Homo sapiens, read-out: IC50 NLOGVALUE) was over 100 µM and the CC50 ([1]; Homo sapiens, read-out: LC50 NLOGVALUE) was over 100 µM. The “TGI NLOGVALUE” [1] was 4, the “TGI NLOGVALUE” [2] was 4 and the GI50 [2, 3] was 0.0245 µM. For the same compound, the IC50 ([2]; Homo sapiens, read-out: IC50 NLOGVALUE (converted)) was 0.417 µM.
